The results in this text go back to the NIST ThermoML archive (doi:10.1016/j.jct.2013.07.011).

As usually defined, the mass density is mass per unit of volume.

Molecules are shown by their SMILES. ± gives the expanded uncertainty stated by the source.

The conditions of the data set: 298.15 K; 101.33 kPa; Liquid; Vibrating tube method.
Take `CCCC[n+]1ccn(C)c1.O=S(=O)([N-]S(=O)(=O)C(F)(F)F)C(F)(F)F`: the mass density is recorded as 1436.35 ± 4 kg/m3.
As for `CCCCn1cc[n+](C)c1.COS(=O)(=O)[O-]` [1-butyl-3-methylimidazolium methyl sulfate], the mass density is given as 1212.59 ± 4 kg/m3.
To `c1ccccc1` [benzene] belongs 873.57 ± 0.11 kg/m3; to `C1CCCCCCC1` [cyclooctane], 831.47 ± 0.3 kg/m3; to `CCCCCCCCC` [nonane], 713.99 ± 0.32 kg/m3.
To `CCCCCCCC` [octane] belongs 698.6 ± 0.23 kg/m3; to `Cc1ccccc1` [toluene], 862.17 ± 0.11 kg/m3.
